Values of other authors in patent publication US11685721B2, “Human plasma kallikrein inhibitors” (BioCryst Pharmaceuticals, Inc., priority 2014, dated 2023).

Tested on: patients with hereditary angioedema (HAE)

| Compound | treating HAE (hereditary angioedema) | edema (patients with hereditary angioedema (HAE)) |
| --- | --- | --- |
| NC(N)=NCCC[C@@H](N)C(=O)N[C@@H](CCCN=C(N)N)C(=O)N1CCC[C@H]1C(=O)N1C[C@H](O)C[C@H]1C(=O)NCC(=O)N[C@@H](Cc1cccs1)C(=O)N[C@@H](CO)C(=O)N1Cc2ccccc2C[C@@H]1C(=O)N1[C@H](C(=O)N[C@@H](CCCN=C(N)N)C(=O)O)C[C@@H]2CCCC[C@@H]21 [Icatibant] | effective |  |
| ecallantide [DX-88] |  | alleviates edema |
